Measured values reported in patent US12655116B2, “Substituted isophthalic acid diamides” (Bayer Aktiengesellschaft, priority 2020, dated 2026).

Experiments:
MATIN [1] = experiment: Pre-emergence herbicidal action against MATIN; assay type: in vivo, Matricaria inodora
In short: (§1)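 Sandy loam pots, seeds covered with soil, then surface-treated with WP or EC formulations at 600–800 l/ha water plus 0.2% wetting agent. Greenhouse, 3 weeks. Percent damage vs untreated controls.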

AVEFA [2] = experiment: Pre-emergence herbicidal action against AVEFA; assay type: in vivo, Avena fatua
In short: as §1

AMARE [3] = experiment: Pre-emergence herbicidal action against AMARE; assay type: in vivo, Amaranthus retroflexus
In short: as §1

SETVI [4] = experiment: Post-emergence herbicidal action against SETVI; assay type: in vivo, Setaria viridis
In short: (§2)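 Visual % rating (0% = as untreated, 100% = dead) ~3 wk after spraying one-leaf-stage plants grown in sandy loam; WP/EC in water at 600–800 l/ha, 0.2% wetting agent.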

PHBPU [5] = experiment: Pre-emergence herbicidal action against PHBPU; assay type: in vivo, Pharbitis purpurea
In short: as §1

VIOTR [6] = experiment: Pre-emergence herbicidal action against VIOTR; assay type: in vivo, Viola tricolor
In short: as §1

ECHCG [7] = experiment: Pre-emergence herbicidal action against ECHCG; assay type: in vivo, Echinochloa crus-galli; conditions: 80 g/ha
In short: as §1

VERPE [8] = experiment: Post-emergence herbicidal action against VERPE; assay type: in vivo, Veronica persica; conditions: 20 g/ha
In short: as §2

AVEFA [9] = experiment: Post-emergence herbicidal action against AVEFA; assay type: in vivo, Avena fatua; conditions: 20 g/ha, visual assessment about 3 weeks after treatment, 100% = plants have died, 0% = like control plants
In short: as §2

ECHCG [10] = experiment: Post-emergence herbicidal action against ECHCG; assay type: in vivo, Echinochloa crus-galli
In short: as §2

ABUTH [11] = experiment: Pre-emergence herbicidal action against ABUTH; assay type: in vivo, Abutilon theophrasti; conditions: for Pre-emergence action against ABUTH (herbicidal activity): 80 g/ha, scored visually after 3 weeks vs untreated controls (100% = plants have died, 0% = like control plants); for Pre-emergence action against ABUTH (herbicidal activity in percent): dosage 20 g/ha, scored visually after 3 weeks vs untreated controls, 100% = plants have died, 0% = like control plants
In short: as §1

ALOMY [12] = experiment: Post-emergence herbicidal action against ALOMY; assay type: in vivo, Alopecurus myosuroides; conditions: visual assessment about 3 weeks after treatment vs untreated controls
In short: as §2

PHBPU [13] = experiment: Post-emergence herbicidal action against PHBPU; assay type: in vivo, Pharbitis purpurea
In short: as §2

SETVI [14] = experiment: Pre-emergence herbicidal action against SETVI; assay type: in vivo, Setaria viridis; conditions: dosage 80 g/ha
In short: as §1

ABUTH [15] = experiment: Post-emergence herbicidal action against ABUTH; assay type: in vivo, Abutilon theophrasti; conditions: visual assessment about 3 weeks after treatment vs untreated controls
In short: as §2

AMARE [16] = experiment: Post-emergence herbicidal action against AMARE; assay type: in vivo, Amaranthus retroflexus; conditions: 20 g/ha, visual assessment about 3 weeks after treatment, 100% = plants have died, 0% = like control plants
In short: as §2

POLCO = experiment: Pre-emergence herbicidal action against POLCO; assay type: in vivo, Polygonum convolvulus; conditions: dosage 80 g/ha
In short: as §1

VERPE [17] = experiment: Pre-emergence herbicidal action against VERPE; assay type: in vivo, Veronica persica; conditions: dosage 80 g/ha
In short: as §1

VIOTR [18] = experiment: Post-emergence herbicidal action against VIOTR; assay type: in vivo, Viola tricolor
In short: as §2

DIGSA [19] = experiment: Post-emergence herbicidal action against DIGSA; assay type: in vivo, Digitaria sanguinalis; conditions: for Post-emergence action against DIGSA: 20 g/ha
In short: as §2

ALOMY [20] = experiment: Pre-emergence herbicidal action against ALOMY; assay type: in vivo, Alopecurus myosuroides; conditions: 80 g/ha, pre-emergence, scored visually after 3 weeks vs untreated controls (100% = plants have died, 0% = like control plants)
In short: as §1

MATIN [21] = experiment: Post-emergence herbicidal action against MATIN; assay type: in vivo, Matricaria inodora
In short: as §2

DIGSA [22] = experiment: Pre-emergence herbicidal action against DIGSA; assay type: in vivo, Digitaria sanguinalis
In short: as §1

STEME [23] = experiment: Pre-emergence herbicidal action against STEME; assay type: in vivo, Stellaria media; conditions: dosage 80 g/ha
Source text: Seeds of monocotyledonous and dicotyledonous weed plants and crop plants are laid out in sandy loam soil in wood-fiber pots and covered with soil. The compounds of the invention, formulated in the form of wettable powders (WP) or as emulsion concentrates (EC), are then applied to the surface of the covering soil in the form of an aqueous suspension or emulsion at a water application rate equivalent to 600 to 800 l/ha, with addition of 0.2% wetting agent. After the treatment, the pots are placed in a greenhouse and kept under good growth conditions for the trial plants. The damage to the test plants is scored visually after a test period of 3 weeks by comparison with untreated controls (herbicidal activity in percent (%): 100% activity=the plants have died, 0% activity=like control plants). […] The tables below illustrate, in an illustrative manner, the post-emergence herbicidal action of the compounds of the invention, the herbicidal activity being stated in percent.

STEME [24] = experiment: Post-emergence herbicidal action against STEME; assay type: in vivo, Stellaria media; conditions: 20 g/ha
Description: Seeds of monocotyledonous and dicotyledonous weed and crop plants are laid out in sandy loam soil in wood-fiber pots, covered with soil and cultivated in a greenhouse under good growth conditions. 2 to 3 weeks after sowing, the test plants are treated at the one-leaf stage. The compounds of the invention, formulated in the form of wettable powders (WP) or as emulsion concentrates (EC), are then sprayed onto the green parts of the plants in the form of an aqueous suspension or emulsion at a water application rate equivalent to 600 to 800 l/ha, with addition of 0.2% wetting agent. After the test plants have been left to stand in the greenhouse under optimal growth conditions for about 3 weeks, the action of the preparations is assessed visually in comparison to untreated controls (herbicidal action in percent (%): 100% activity=the plants have died, 0% activity=like control plants). […] The tables below illustrate, in an illustrative manner, the post-emergence herbicidal action of the compounds of the invention, the herbicidal activity being stated in percent.

[25] = 20 g/ha, scored visually after 3 weeks vs untreated controls, 100% = plants have died, 0% = like control plants
[26] = 80 g/ha, scored visually after 3 weeks vs untreated controls (100% = plants have died, 0% = like control plants)

Row | SMILES | Pre-emergence action against MATIN in % (MATIN [1]; dosage 20 g/ha) | Pre-emergence action against MATIN in % (MATIN [1]; dosage 80 g/ha) | Pre-emergence action against AMARE in % (AMARE [3]; [25]) | Pre-emergence action against AMARE in % (AMARE [3]; [26]) | Post-emergence action against SETVI in % (SETVI [4]; dosage 20 g/ha) | Pre-emergence action against VIOTR in % (VIOTR [6]; dosage 80 g/ha) | Pre-emergence action against ECHCG in % (ECHCG [7]) | Post-emergence action against ECHCG in % (ECHCG [10]; dosage 20 g/ha) | Pre-emergence action against ABUTH (herbicidal activity) (ABUTH [11]) | Pre-emergence action against ABUTH (herbicidal activity in percent) (ABUTH [11]) | Pre-emergence action against SETVI in % (SETVI [14]) | Post-emergence action against ABUTH in % (ABUTH [15]; dosage 5 g/ha) | Post-emergence action against ABUTH in % (ABUTH [15]; dosage 20 g/ha) | Post-emergence action at 20 g/ha against AMARE in % (AMARE [16]) | Post-emergence action against DIGSA (DIGSA [19]) | Pre-emergence action against DIGSA in % (DIGSA [22]; dosage 20 g/ha) | Pre-emergence action against DIGSA in % (DIGSA [22]; dosage 80 g/ha) | Post-emergence action against SETVI in % (SETVI [4]; dosage 5 g/ha) | Post-emergence action against STEME in % (STEME [24]) | other results
1 | CCn1nnnc1NC(=O)c1ccc(C(F)(F)F)c(C(=O)NCC(F)F)c1C1CC1 [Example 2-291] | 90% | 100% | 100% | 100% | 90% | 100% | 90% | 80% | 100% | 100% | 100% | 80% | 80% | 90% | 100% | 100% | 100% | – | – | Pre-emergence action against AVEFA (AVEFA [2]; 20 g/ha, scored visually after 3 weeks, 100% = plants have died, 0% = like control plants): 80%; Pre-emergence action against AVEFA in % (AVEFA [2]; 80 g/ha, pre-emergence): 80%; Pre-emergence action against PHBPU in % (PHBPU [5]; dosage 20 g/ha): 80%; Pre-emergence action against PHBPU in % (PHBPU [5]; dosage 80 g/ha): 90%; Pre-emergence action against VIOTR in % (VIOTR [6]; dosage 20 g/ha): 100%; Post-emergence action against VERPE in % (VERPE [8]): 80%; Post-emergence action at 20 g/ha against AVEFA in % (AVEFA [9]): 90%; Post-emergence action against ECHCG in % (ECHCG [10]; dosage 5 g/ha): 80%; Post-emergence action against ALOMY in % (ALOMY [12]; dosage 5 g/ha): 80%; Post-emergence action against ALOMY in % (ALOMY [12]; dosage 20 g/ha): 80%; Post-emergence action against PHBPU in % (PHBPU [13]; dosage 5 g/ha): 80%; Post-emergence action against PHBPU in % (PHBPU [13]; dosage 20 g/ha): 90%; Pre-emergence action against POLCO in % (POLCO): 80%; Pre-emergence action against VERPE in % (VERPE [17]): 90%; Post-emergence action against VIOTR in % (VIOTR [18]; 5 g/ha): 80%; Post-emergence action against VIOTR in % (VIOTR [18]; 20 g/ha): 90%; Post-emergence action against DIGSA in % (DIGSA [19]; 5 g/ha): 90%; Pre-emergence action against ALOMY (herbicidal activity) (ALOMY [20]): 80%; Post-emergence action against MATIN in % (MATIN [21]; dosage 5 g/ha): 80%; Post-emergence action against MATIN in % (MATIN [21]; dosage 20 g/ha): 90%
2 | NC(=O)c1c(C(F)(F)F)ccc(C(=O)Nc2nnco2)c1Cl [Example 5-253] | – | – | 100% | 100% | 80% | 90% | – | 80% | 100% | 90% | 80% | 90% | 90% | 80% | 80% | 80% | 90% | 80% | 80% | Pre-emergence action against STEME in % (STEME [23]): 90%
3 | Cc1nnc(NC(=O)c2ccc(C(F)F)c(C(=O)NC3CC3)c2C)o1 [Example 6-33] | 80% | 90% | 90% | 100% | 80% | 100% | 100% | 80% | 90% | – | 100% | – | 80% | 90% | – | 80% | 100% | 80% | 80% | –
